The values that follow come from PMC7849180 (Frontiers in Pharmacology, 2020).

As usually defined, the IC50 is the concentration needed to halve the response being measured. In general, Cmax refers to the peak of the concentration-time curve. Usually Tmax stands for the time at which the peak concentration occurs.

One data set deals with ERK. Kind of data set: Phosphorylation of Elk-1 by ERK. The class given is biochemical. From the text:
(§1) Suzhou Zelgen Biopharmaceuticals Co., Ltd. Jaktinib Hydrochloride Tablets Chemical Drug Class 1 New Drug has been completed. The ongoing toxicity tests include a long-term 39-week toxicity test in Beagle dogs by oral administration, a reproductive toxicity test in rats during the teratogenic sensitive period, and a reproductive toxicity test in rabbits during the teratogenic sensitive period.
(§2) Preclinical Pharmacodynamic Study
(§3) Study on the in vitro Pharmacodynamic Effects of ZG0163 at the […]
(§4) In this study, the effects of ZG0163 was similar to those of positive control compounds, ZG0164 and ZG0178.
(§5) Study on the in vitro Pharmacodynamic Effects of ZG0163 at the Cellular Level (Ba/F3-EpoR-JAK2V617F cells)
(§6) JAK2V617F cell line, the compound ZG0163 was able to induce apoptosis of pathogenic cells and eliminate abnormal cell proliferation by inhibiting the JAK-STAT signaling pathway, thus achieving treatment efficacy in myeloproliferative neoplasms. […]
(§7) cell line, manifested as significant inhibition of phosphorylation of JAK2 and its downstream signaling proteins ERK and STAT5. The effects of ZG0163 was similar to those of positive control compounds, ZG0164 and ZG0178.
EpoR-JAK2V617F, which was similar to those of positive control compounds, ZG0164

In data set [1] the test system is Ba/F3-EpoR-JAK2V617F cells. Kind of data set: Cell activity of mutant Ba/F3-EpoR-JAK2V617F. The class given is cell-based. As to conditions: read-out: IC50, inhibition of cell activity.
Excerpt: as §1, §2, §3, §4, §5, §6, §7
EpoR-JAK2V617F, which was similar to those of positive control compounds, ZG0164 […]
and ZG0178. However, the inhibitory effect on the activity of Ba/F3-EpoR cell line […]
respectively. […]

Data set [2] in a line: PK, single intravenous dose. As to conditions: 12.2 mg ZG0128 (1.22 mg/kg). The class given is in vivo, beagles. On the procedure: Suzhou Zelgen Biopharmaceuticals Co., Ltd. Jaktinib Hydrochloride Tablets Chemical Drug Class 1 New Drug
Pharmacokinetics of single dose intravenous administration in beagles.
After intravenous administration of 12.2 mg ZG0128 (the average weight of the beagles was about 10 kg, so the dose given equals to 1.22 mg/kg ZG0128), ZG0163 […]
AUC0-t was 70.1% of that of the original drug.
Pharmacokinetics of single-dose intragastric administration.
The average Tmax of ZG0163 was 2.0 h after a single-dose intragastric administration of 1, 2, and 4 ZG0128 tablets (corresponding to 61, 122, and 244 […]
mg/ZG0128). […] The plasma […]
exposure AUC0-t was 459, 948, and 1728 ng•h/mL (mean) and the average plasma […]
There were large individual differences in plasma exposure AUC0-t in dogs. The pharmacokinetic differences between genders could not be determined. Within the range of 61-244 mg, the AUC0-t of ZG0163 increased proportionally with the increasing dosage. The average Tmax of metabolite ZG0245 was 2.0 h. The plasma exposure of metabolite ZG0245 was roughly 2.16 times

A short description of data set [3]: PK, single intragastric dose. Type of data set: in vivo, beagles. On the procedure:
Overall 2.0 (1.0-2.0) 0.593 ± 0.194 2.96 ± 1.07 3.03 ± 1.09 3.99 ± 0.40 2.24 ± 0.88 30.5 Male 2.0 (2.0-8.0) 0.765 ± 0.105 5.76 ± 3.51 5.82 ± 3.48 5.28 ± 2.11 2.31 ± 0.89 […] 61 Male 8.0 (4.0-12.0) 1.49 ± 0.33 16.6 ± 8.2 16.7 ± 8.2 7.73 ± 2.48 3.72 ± 0.79 Female 2.0 (2.0-6.0) 1.73 ± 0.75 17.4 ± 8.9 17.4 ± 8.9 6.33 ± 1.62 2.54 ± 1.06 […] (multiple […] Pharmacokinetics of single dose intravenous administration in beagles. After intravenous administration of 12.2 mg ZG0128 (the average weight of the beagles was about 10 kg, so the dose given equals to 1.22 mg/kg ZG0128), ZG0163 […] 3.49 L/kg. […] Pharmacokinetics of single-dose intragastric administration. […] mg/ZG0128). […] The plasma […] There were large individual differences in plasma exposure AUC0-t in dogs. The pharmacokinetic differences between genders could not be determined. […] increased proportionally with the increasing dosage. The average Tmax of metabolite ZG0245 was 2.0 h.

Consider Jaktinib, for which the “effect on phosphorylation of Elk-1 by ERK” value with ERK was “significantly inhibited”. For the same substance, in data set [1], the IC50 stood at 500 nM. Moreover, in data set [2], the “plasma clearance CL” value stood at 49.3 mL/min/kg and the “volume of distribution Vss” value was determined as 3.49 L/kg. Further, in data set [3] (61 mg ZG0128), the “AUC0-t (mean)” value stood at 459 ng·h/mL and the Cmax is reported as 156 ng/mL. Further, in data set [3] (61 mg, by AUC0-t), the absolute bioavailability came out at 27.2%. In addition, in data set [3] (122 mg ZG0128), the “AUC0-t (mean)” value amounted to 948 ng·h/mL and the Cmax came to 266 ng/mL. In addition, in data set [3] (244 mg ZG0128), the “AUC0-t (mean)” value amounted to 1728 ng·h/mL and the Cmax came to 444 ng/mL. The “average Tmax” value in data set [3] (1, 2 and 4 tablets (61, 122, 244 mg ZG0128)) is recorded as 2.0 h. For the same substance, the “average t1/2, range over doses” value in data set [3] (61–244 mg) was 1.31 to 2.49 h. Moreover, the “exposure as % of the medium dosage group (122 mg/animal)” value in data set [3] (intragastric 122 mg ZG0128) was found to be 93.0%. The Tmax in data set [3] (intragastric 122 mg ZG0128 (compared with medium dosage tablet group)) is 1.50 h.
